The assay relates to α-SMA. The experiment in a line: α-SMA expression inhibitory ability in MRC5 cell line (Western blotting). Particulars: TGF-β1 (10 ng/mL), 72 hours, relative to TGF-β1 only. The class given is cell-based. As to the method:
Subsequently, the inhibitory effect on pulmonary fibrosis of the compounds according to the present invention was overall evaluated. An MRC5 cell line was treated with each compound at 10 μM, and 2 hours later, treated with TGF-β1 (10 ng/mL). After 72 hours, the cells were lysed using RIPA Buffer, and then an α-SMA protein level was measured through Western blotting. The α-SMA expression level when treating the cells with each compound and TGF-β1 compared to the α-SMA expression level when treating the cells only with TGF-β1 without the compound was calculated as the α-SMA expression inhibitory ability of the corresponding compound. The α-SMA expression inhibitory ability of each compound is summarized in Table 2 below (A: inhibitory ability≥70%, B: 50%: inhibitory ability<70%, C: inhibitory ability<50%).
A word on the inhibition: it is the percentage by which the read-out fell short of the control. Low readings indicate a response near the control, high ones a response far below the control. `O=C(CN1CCCCC1)N1CCN(Cc2cccc(Cl)c2)c2ccccc21` [Compound 103, 1-(4-(3-chlorobenzyl)-3,4-dihydroquinoxaline-1(2H)-yl)-2-(piperidin-1-yl)ethan-1-one] returned an inhibition at 10 µM of 50 to 70%. Turning to `CN1CCN(CCC(=O)N2CCN(c3cccc(Cl)c3)c3ccccc32)CC1` [Compound 135, 1-(4-(3-chlorophenyl)-3,4-dihydroquinoxaline-1(2H)-yl)-3-(4-methylpiperazin-1-yl)propan-1-one], the inhibition at 10 µM was no less than 70%. In turn, `CC(C(=O)N1CCN(c2ccc(F)cc2)c2cc(F)ccc21)N1CCCCC1` (centres unmarked) [Compound 53, 1-(6-fluoro-4-(4-fluorophenyl)-3,4-dihydroquinoxaline-1(2H)-yl)-2-(piperidin-1-yl)propan-1-one] returned an inhibition at 10 µM of less than 50%.

Turning to `CN1CC[C@H](NCCC(=O)N2CCN(c3ccc(F)cc3)c3ccccc32)C1` [Compound 27, (S)-1-(4-(4-fluorophenyl)-3,4-dihydroquinoxaline-1(2H)-yl)-3-((1-methylpyrrolidin-3-yl)amino)propan-1-one], the inhibition at 10 µM is no less than 70%. For the compound `C[C@H]1CCCCN1C(=O)CN1CCN(c2ccccc2)c2ccccc21` [Compound 71, (S)-1-(2-methylpiperidin-1-yl)-2-(4-phenyl-3,4-dihydroquinoxaline-1(2H)-yl)ethan-1-one], the inhibition at 10 µM is less than 50%. As for `O=C(CN1CCCC1)N1CCN(Cc2ccccn2)c2ccccc21` [Compound 117, 1-(4-(pyridin-2-ylmethyl)-3,4-dihydroquinoxaline-1(2H)-yl)-2-(pyrrolidin-1-yl)ethan-1-one], the figure is less than 50%; as for `O=C(CCN1CCCCC1)N1CCN(Cc2ccccc2)c2ccccc21` [Compound 79, 1-(4-benzyl-3,4-dihydroquinoxaline-1(2H)-yl)-3-(piperidin-1-yl)propan-1-one], less than 50%; as for `O=C(CCN1CCCC1)N1CCN(c2ccc(Cl)cc2)c2ccccc21` [Compound 140, 1-(4-(4-chlorophenyl)-3,4-dihydroquinoxaline-1(2H)-yl)-3-(pyrrolidin-1-yl)propan-1-one], less than 50%. The value for `CC(C(=O)N1CCN(C2CCCCC2)c2ccccc21)N1CCCCC1` (centres unmarked) [Compound 191, 1-(4-cyclohexyl-3,4-dihydroquinoxaline-1(2H)-yl)-2-(piperidin-1-yl)propan-1-one] was 50 to 70%.

The compound `O=C(CCN1CCCC1)N1CCN(c2ccc(F)cc2)c2cc(F)ccc21` [Compound 36, 1-(6-fluoro-4-(4-fluorophenyl)-3,4-dihydroquinoxaline-1(2H)-yl)-3-(pyrrolidin-1-yl)propan-1-one] gave an inhibition at 10 µM of no less than 70%. With `CC(C(=O)N1CCN(c2ccccc2Cl)c2ccccc21)N1CCCCC1` (centres unmarked) [Compound 129, 1-(4-(2-chlorophenyl)-3,4-dihydroquinoxaline-1(2H)-yl)-2-(piperidin-1-yl)propan-1-one], the inhibition at 10 µM was no less than 70%. The value for `O=C(CN1CCCCC1)N1CCN(c2ccccn2)c2ccccc21` [Compound 153, 2-(piperidin-1-yl)-1-(4-(pyridin-2-yl)-3,4-dihydroquinoxaline-1(2H)-yl)ethan-1-one] was no less than 70%; that for `CC(C(=O)N1CCN(CC2CC2)c2ccccc21)N1CCCCC1` (centres unmarked) [Compound 165, 1-(4-(cyclopropylmethyl)-3,4-dihydroquinoxaline-1(2H)-yl)-2-(piperidin-1-yl)propan-1-one] was less than 50%. As for `CC(C(=O)N1CCN(C(=O)c2ccccc2)c2ccccc21)N1CCCCC1` (centres unmarked) [Compound 200, 1-(4-benzoyl-3,4-dihydroquinoxaline-1(2H)-yl)-2-(piperidin-1-yl)propan-1-one], the figure is less than 50%; as for `CN1CCN(CCC(=O)N2CCN(C3CCCCC3)c3ccccc32)CC1` [Compound 188, 1-(4-cyclohexyl-3,4-dihydroquinoxaline-1(2H)-yl)-3-(4-methylpiperazin-1-yl)propan-1-one], 50 to 70%.

Regarding `O=C(CCN1CCCCC1)N1CCN(c2ccc(Cl)cc2)c2ccccc21` [Compound 141, 1-(4-(4-chlorophenyl)-3,4-dihydroquinoxaline-1(2H)-yl)-3-(piperidin-1-yl)propan-1-one], the inhibition at 10 µM was 50 to 70%. As for `CC(C(=O)N1CCN(c2ccc(F)cc2)c2cc(F)ccc21)N1CCN(C)CC1` (centres unmarked) [Compound 52, 1-(6-fluoro-4-(4-fluorophenyl)-3,4-dihydroquinoxaline-1(2H)-yl)-2-(4-methylpiperazin-1-yl)propan-1-one], the figure is less than 50%. Compound `O=C(CN1CCCCC1)N1CCN(C(=O)c2ccccc2)c2ccccc21` [Compound 203, 1-(4-benzoyl-3,4-dihydroquinoxaline-1(2H)-yl)-2-(piperidin-1-yl)ethan-1-one] had an inhibition at 10 µM of less than 50%.

Consider `O=C(CCN1CCCC1)N1CCN(C2CCCCC2)c2ccccc21` [Compound 186, 1-(4-cyclohexyl-3,4-dihydroquinoxaline-1(2H)-yl)-3-(pyrrolidin-1-yl)propan-1-one], for which the inhibition at 10 µM lay in the range of 50 to 70%.

In turn, `CC(C(=O)N1CCN(c2ccc(F)cc2)c2cc(F)ccc21)N1CCC[C@H]1C` (stereo partly drawn) [Compound 54, 1-(6-fluoro-4-(4-fluorophenyl)-3,4-dihydroquinoxaline-1(2H)-yl)-2-((R)-2-methylpyrrolidin-1-yl)propan-1-one] gave an inhibition at 10 µM of less than 50%. For `O=C(CN1CCN(c2ccccc2)c2ccccc21)N1CCCC(O)C1` (centres unmarked) [Compound 77, 1-(3-hydroxypiperidin-1-yl)-2-(4-phenyl-3,4-dihydroquinoxaline-1(2H)-yl)ethan-1-one], the inhibition at 10 µM was less than 50%. The value for `O=C(CCN1CCN2CCCC2C1)N1CCN(c2ccc(F)cc2)c2ccccc21` (centres unmarked) [Compound 20, 1-(4-(4-fluorophenyl)-3,4-dihydroquinoxaline-1(2H)-yl)-3-(hexahydropyrrolo[1,2-a]pyrazin-2(1H)-yl)propan-1-one] was 50 to 70%. As for `O=C(CCN1CCCC1)N1CCN(C(=O)c2ccccc2)c2ccccc21` [Compound 196, 1-(4-benzoyl-3,4-dihydroquinoxaline-1(2H)-yl)-3-(pyrrolidin-1-yl)propan-1-one], the figure is less than 50%; as for `CC(C(=O)N1CCN(c2cccc(Cl)c2)c2ccccc21)N1CCCC1` (centres unmarked) [Compound 136, 1-(4-(3-chlorophenyl)-3,4-dihydroquinoxaline-1(2H)-yl)-2-(pyrrolidin-1-yl)propan-1-one], no less than 70%. Consider `CC(C(=O)N1CCN(c2ccccc2)c2cc(F)ccc21)N1CCC[C@H]1C` (some centres unmarked) [Compound 13], for which the inhibition at 10 µM was less than 50%. For `CC(C(=O)N1CCN(c2ccccc2Cl)c2ccccc21)N1CCCC1` (centres unmarked) [Compound 128, 1-(4-(2-chlorophenyl)-3,4-dihydroquinoxaline-1(2H)-yl)-2-(pyrrolidin-1-yl)propan-1-one], the inhibition at 10 µM fell in the range of 50 to 70%. `CC(C(=O)N1CCN(Cc2ccccc2)c2ccccc21)N1CCN(C)CC1` (centres unmarked) [Compound 83, 1-(4-benzyl-3,4-dihydroquinoxaline-1(2H)-yl)-2-(4-methylpiperazin-1-yl)propan-1-one] had an inhibition at 10 µM of 50 to 70%. The value for `CC(C)CN1CCN(C(=O)CN2CCN(C)CC2)c2ccccc21` [Compound 176, 1-(4-isobutyl-3,4-dihydroquinoxaline-1(2H)-yl)-2-(4-methylpiperazin-1-yl)ethan-1-one] was less than 50%; that for `CC(C(=O)N1CCN(Cc2cccc(Cl)c2)c2ccccc21)N1CCN(C)CC1` (centres unmarked) [Compound 101, 1-(4-(3-chlorobenzyl)-3,4-dihydroquinoxaline-1(2H)-yl)-2-(4-methylpiperazin-1-yl)propan-1-one] was 50 to 70%.

Turning to `CC(C(=O)N1CCN(c2ccccn2)c2ccccc21)N1CCCCC1` (centres unmarked) [Compound 150], the inhibition at 10 µM is no less than 70%. Consider `O=C(CN1CCCC1)N1CCN(c2ccccn2)c2ccccc21` [Compound 152], for which the inhibition at 10 µM was no less than 70%. The value for `CC(C(=O)N1CCN(c2ccccn2)c2ccccc21)N1CCCC1` (centres unmarked) [Compound 149] was less than 50%; that for `O=C(CCN1CCCC1)N1CCN(c2cccc(Cl)c2)c2ccccc21` [Compound 134, 1-(4-(3-chlorophenyl)-3,4-dihydroquinoxaline-1(2H)-yl)-3-(pyrrolidin-1-yl)propan-1-one] was no less than 70%; that for `CN1CCN(CCC(=O)N2CCN(CC3CC3)c3ccccc32)CC1` [Compound 163, 1-(4-(cyclopropylmethyl)-3,4-dihydroquinoxaline-1(2H)-yl)-3-(4-methylpiperazin-1-yl)propan-1-one] was less than 50%. As for `C[C@@H]1CCCN1CCC(=O)N1CCN(c2ccccc2)c2cc(F)ccc21` [Compound 5, (R)-1-(6-fluoro-4-phenyl-3,4-dihydroquinoxaline-1(2H)-yl)-3-(2-methylpyrrolidin-1-yl)propan-1-one], the figure is less than 50%; as for `CC(C)CN1CCN(C(=O)CN2CCCC2)c2ccccc21` [Compound 174, 1-(4-isobutyl-3,4-dihydroquinoxaline-1(2H)-yl)-2-(pyrrolidin-1-yl)ethan-1-one], 50 to 70%. `O=C(CCN1CCCC1)N1CCN(Cc2ccccc2)c2ccccc21` [Compound 78, 1-(4-benzyl-3,4-dihydroquinoxaline-1(2H)-yl)-3-(pyrrolidin-1-yl)propan-1-one] had an inhibition at 10 µM of 50 to 70%. The value for `CC(C(=O)N1CCN(c2ccccc2)c2ccccc21)N1CCN(C)CC1` (centres unmarked) [Compound 62, 2-(4-methylpiperazin-1-yl)-1-(4-phenyl-3,4-dihydroquinoxaline-1(2H)-yl)propan-1-one] was less than 50%.
